Experimental data reported in US10201532B2, “Compounds and their use” (ALLECRA THERAPEUTICS GMBH, priority 2010, dated 2019).
Where “and” joins values, the source holds several entries; their conditions need not be identical. Identical values can stand only once. Like-named read-outs stand apart in the source and are kept apart here.

Assays:
[1] = tested on: K. pneumoniae UMM3 (KPC2); experiment: Synergistic broth micro-dilution MIC; assay type: cell-based, Klebsiella pneumoniae; conditions: BLI at 4 μg/mL
[2] = tested on: KPC-3 expressing E. coli (J53 R6206); experiment: Synergistic broth micro-dilution MIC (checkerboard); assay type: cell-based, Escherichia coli; conditions: for MIC: Escherichia coli, read-out: MIC of BLI alone, BLI alone
[3] = tested on: E. cloacae 01 MGH 049 (KPC2, AmpC); experiment: Synergistic broth micro-dilution MIC; assay type: cell-based; conditions: BLI at 4 μg/mL
[4] = tested on: KPC2 K. pneumoniae ATCC BAA 1705; experiment: Mice systemic infection model; assay type: in vivo; conditions: sub-cutaneous, printed as piperacillin:BLI dose
[5] = tested on: K. pneumoniae NCTC 13438 (KPC3); experiment: Synergistic broth micro-dilution MIC; assay type: cell-based, Klebsiella pneumoniae; conditions: BLI at 4 μg/mL
[6] = tested on: KPC2 K. pneumoniae ATCC BAA 1705; experiment: Mice systemic infection model; assay type: in vivo; conditions: Klebsiella pneumoniae
Description: Female Swiss Albino mice, weighing 18-22 g were used for all studies. For each dose group, 5 or 6 mice were included. Study protocols were reviewed and approved by Institutional Animal Ethical Committee, Orchid Research Laboratories Limited. Mice were housed in individually ventilated cages provided with food and water ad libitum, throughout the study period. From overnight culture in Brain-Heart Infusion agar medium, challenge inoculum with required bacterial density was prepared in normal saline containing Hog gastric mucin. In studies involved with doripenem, washed bacterial cells was used. Each mouse was infected […] inoculum by intra-peritoneal injection.
Infected mice were dosed sub-cutaneously, with drug preparations at three different time points post-infection.
Imipenem with BLI combinations: Increasing concentrations of Imipenem as single agent or in combination with fixed concentration of BLIs were used to dose infected mice, sub-cutaneously. In this experiment Imipenem was always administered along with cilastatin. Doripenem with BLI combinations: Increasing concentrations of doripenem as single agent or in combination with fixed concentration of BLIs were used to dose infected mice, sub-cutaneously.
Survival of the treated mice were monitored twice a day, up to 7 days post-infection. Efficacy dose 50 (ED50) was calculated by Reed and Muench method (Reed, L. J.; Muench, H. “A simple method of estimating fifty percent endpoints”. The American Journal of Hygiene, 1938, 27: 493-497.).

[7] = tested on: KPC2 K. pneumoniae ATCC BAA 1705; experiment: Neutropenic mice thigh infection model (human adapted model); assay type: in vivo; conditions: for Bacterial load (range), Doripenem + BLI: Doripenem 70 mg/kg fractionated + BLI 35 mg/kg bolus, end point 8 h
Description: Female Swiss Albino mice weighing 24-30 g were used for all studies. Study protocols were reviewed and approved by Institutional Animal Ethical Committee, Orchid Research Laboratories Limited. Mice were rendered neutropenic by intra-peritoneal cyclophosphamide injections. Log phase culture in brain heart infusion broth was injected in to mice thighs. Imipenem or Doripenen alone or in combination were administered sub-cutaneously in decreasing fractionated doses every 15 minutes over the period of 5.5 h (Flückiger, U. et al. “Integration of pharmacokinetics and pharmacodynamics of Imipenem in a human-adapted mouse model’. Antimicrobial Agents and Chemother, 1991, 35(9): 1905-1910). The Compound-1 or tazobactam was administered sub-cutaneously as bolus dose at the start of dosing. Efficacy end point was 6 h in Imipenem studies and 8 h in Doripenen studies.
Three experiments were carried out where Doripenen alone or in combination with compound-1 or tazobactam (two experiments) were evaluated. Doripenem 70 mg/kg was administered in fractionated doses over the period of 5.5 h (Fluckiger, U. et al. “Integration of pharmacokinetics and pharmacodynamics of Imipenem in a human-adapted mouse model’. Antimicrobial Agents and Chemother., 1991, 35(9): 1905-1910). Compound-1 or tazobactam was administered as bolus dose at initiation of therapy. Efficacy end point was 8 h after initiation of therapy.

[8] = tested on: KPC-3 expressing E. coli (J53 R6206); experiment: microbe, parasite or virus in culture; assay type: cell-based, Escherichia coli; conditions: for MIC of Cefadroxil in combination with BLI / MIC of Cefalonium in combination with BLI / MIC of Cefquinome in combination with BLI / MIC of Ceftiofur in combination with BLI: BLI at 4 μg/mL, E. coli J53 R6206; for MIC: Escherichia coli, read-out: MIC of BLI alone
Description: The β-lactam compound was tested for in vitro antibacterial activities by the broth micro-dilution or agar dilution method as specified in documents published by Clinical and Laboratory Standards Institute (CLSI), USA (formerly NCCLS). Approved standard M7-A7, January 2006, CLSI, Wayne, Pa., USA and M100-S18, January 2008, CLSI, Wayne, Pa., USA.
In agar dilution method briefly, stock solutions of the cephalosporins for veterinary use (e.g. 2 mg/mL) was made in water, 0.1M phosphate buffers or appropriate solvents and the solution was serially two fold diluted. Compound-1 was dissolved in water and Tazobactam (comparator BLI) in 0.1M phosphate buffer, pH 6.0 to get a solution of 1 mg/mL. Cephalosporins were screened in a concentration range of 0.5-32 μg/mL. For combination, Tazobactam or the Compound-1 described herein were tested at a fixed concentration of 4 μg/mL along with the cephalosporins concentration ranging from 0.5 to 32 μg/mL. […] The compound of formula (I) and Tazobactam were also tested individually. The bacterial inoculum was prepared by picking 3 to 5 well isolated bacterial colonies with the same morphological appearance from an 18-24 h old culture and adjusting the turbidity of the saline suspension to 0.5 McFarland turbidity standard equivalent to a bacterial population of ˜1×10^8 CFU per mL of suspension. The suspension was diluted 1:10 in saline to get a bacterial population of ˜1×10^7 CFU/mL as inoculum. This bacterial inoculum was inoculated onto the prepared petri dishes by a multipoint inoculator with each inoculum spot containing ˜1×10^4 CFU of the bacterial strain. The inoculated petri dishes were incubated at 35° C. in an ambient atmosphere for 18-20 h.

[9] = BAA1705, 168 h, read-out: ED50, single agent
[10] = BAA1705, BLI fixed at 64 mg/kg, mice, sub-cutaneous, with cilastatin, read-out: ED50 of Imipenem + BLI

| SMILES | MIC of Imipenem in combination with BLI [1] [µg/mL] | MIC of Cefepime in combination with BLI ([2]; BLI at 2 μg/mL) [µg/mL] | MIC of Cefotaxime in combination with BLI ([2]; BLI at 2 μg/mL) [µg/mL] | MIC of Ceftazidime in combination with BLI ([2]; BLI at 2 μg/mL) [µg/mL] | MIC of Ceftobiprole in combination with BLI ([2]; BLI at 2 μg/mL) [µg/mL] | MIC of Imipenem in combination with BLI ([2]; BLI at 2 μg/mL) [µg/mL] | MIC of Meropenem in combination with BLI ([2]; BLI at 2 μg/mL) [µg/mL] | MIC of Cefepime in combination with BLI ([2]; BLI at 4 μg/mL) [µg/mL] | MIC of Cefotaxime in combination with BLI ([2]; BLI at 4 μg/mL) [µg/mL] | MIC of Ceftazidime in combination with BLI ([2]; BLI at 4 μg/mL) [µg/mL] | MIC of Ceftobiprole in combination with BLI ([2]; BLI at 4 μg/mL) [µg/mL] | MIC of Imipenem in combination with BLI ([2]; BLI at 4 μg/mL) [µg/mL] | MIC of Cefepime in combination with BLI ([2]; BLI at 8 μg/mL) [µg/mL] | MIC of Cefotaxime in combination with BLI ([2]; BLI at 8 μg/mL) [µg/mL] | MIC of Ceftazidime in combination with BLI ([2]; BLI at 8 μg/mL) [µg/mL] | MIC of Ceftobiprole in combination with BLI ([2]; BLI at 8 μg/mL) [µg/mL] | MIC of Imipenem in combination with BLI ([2]; BLI at 8 μg/mL) [µg/mL] | MIC of Meropenem in combination with BLI ([2]; BLI at 8 μg/mL) [µg/mL] | MIC of Imipenem in combination with BLI ([2]; BLI at 16 μg/mL) [µg/mL] | MIC of Meropenem in combination with BLI ([2]; BLI at 16 μg/mL) [µg/mL] | further results |
| --- | --- | --- | --- | --- | --- | --- | --- | --- | --- | --- | --- | --- | --- | --- | --- | --- | --- | --- | --- | --- | --- |
| C[C@]1(Cn2ccnn2)[C@H](C(=O)O)N2C(=O)C[C@H]2S1(=O)=O [Tazobactam] | 4 | 16 | 8 | 32 | 32 | 2 | 1 | 8 | 8 | 32 | 16 | 2 | 4 | 4 | 32 | 16 | 1 | 0.5 | 1 | <0.125 | MIC of Meropenem in combination with BLI ([2]; BLI at 4 μg/mL): 0.5 µg/mL; MIC [2]: > 8 µg/mL; MIC of Imipenem in combination with BLI [3]: 8 µg/mL; ED50 of Piperacillin:BLI at 1:1 ratio [4]: >200:>200 mg/kg; ED50 of Piperacillin:BLI at 1:1 ratio ([4]; listed as tazobactam): > 200 mg/kg; MIC of Imipenem in combination with BLI [5]: 64 µg/mL; ED50 [6, 9]: > 200 mg/kg; ED50 [6, 10]: 4 mg/kg; Bacterial load (range), Doripenem + BLI [7]: 1.19 × 10^7-1.6 × 10^7 CFU/thigh; MIC of Cefadroxil in combination with BLI [8]: >32 µg/mL; MIC of Cefalonium in combination with BLI [8]: 32 µg/mL; MIC of Cefquinome in combination with BLI [8]: 8 µg/mL; MIC of Ceftiofur in combination with BLI [8]: 2 µg/mL; MIC [8]: > 16 µg/mL |
| C[n+]1ccn(C[C@@]2(C)[C@H](C(=O)[O-])N3C(=O)C[C@H]3S2(=O)=O)n1 [Compound-1, 1-{[(2S,3S,5R)-2-Carboxy-3-methyl-4,4,7-trioxo-4-thia-1-azabicyclo[3.2.0]hept-3-yl]methyl}-3-methyl-1H-1,2,3-triazol-3-ium] | 1 | 1 | 1 | 2 | 2 | 1 | <0.06 | 0.25 | <0.25 | 1 | 0.5 | 0.5 | <0.125 | <0.25 | 1 | <0.25 | 0.5 | <0.06 | 0.25 | <0.125 | MIC [2]: > 8 µg/mL; MIC of Imipenem in combination with BLI [3]: 4 µg/mL; ED50 of Piperacillin:BLI at 1:1 ratio [4]: 50 mg/kg and 50:50 mg/kg; MIC of Imipenem in combination with BLI [5]: 32 µg/mL; ED50 [6, 9]: > 64 mg/kg; ED50 [6, 10]: 2.2 mg/kg; Bacterial load (range), Doripenem + BLI [7]: 7.9E+05-1.4E+06 CFU/thigh; Bacterial load (range), Doripenem + BLI ([7]; listed as compound-1): 7.9E+05-1.3E+06 CFU/thigh; Bacterial load, Imipenem + BLI ([7]; Imipenem 140 mg/kg fractionated + BLI 140 mg/kg bolus, end point 6 h): 2.1E+05 CFU/thigh; MIC of Cefadroxil in combination with BLI [8]: >32 µg/mL; MIC of Cefalonium in combination with BLI [8]: 4 µg/mL; MIC of Cefquinome in combination with BLI [8]: <0.5 µg/mL; MIC of Ceftiofur in combination with BLI [8]: <0.5 µg/mL; MIC [8]: > 16 µg/mL |
